Eleven molecules from PubChem BioAssay (NCI) can be followed below.

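Results reflect a 48-hour exposure of cells in 96-well plates to compound at five concentrations. Definition used: TGI = concentration required for complete inhibition of growth.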 Where only a bound is given, the exact number is not on record here.

Test systems include NCI/ADR-RES ovarian; HCT-116 colon; HOP-62 NSCLC; LOX IMVI melanoma; UACC-257 melanoma; SK-OV-3 ovarian; SNB-75 CNS; SF-539 CNS; UO-31 renal; A498 renal; HCC-2998 colon; A549 NSCLC; CAKI-1 renal; BT-549 breast; T-47D breast; EKVX NSCLC; OVCAR-8 ovarian; COLO 205 colon; RPMI-8226 leukemia; HOP-92 NSCLC.
What all share (assay): growth of human tumour cells (NCI), 48 h

`Cc1cn(C2CC(N=[N+]=[N-])C(COP(=O)(O)OCC3OC(n4cc(F)c(=O)[nH]c4=O)CC3O)O2)c(=O)[nH]c1=O` (stereo not given): the TGI in the test on NCI/ADR-RES ovarian is greater than 24.6 µM; in the test on HCT-116 colon, greater than 100 µM; with HOP-62 NSCLC, greater than 100 µM; with LOX IMVI melanoma, greater than 100 µM; in the test with UACC-257 melanoma, greater than 100 µM; in the test on SK-OV-3 ovarian, greater than 100 µM. The TGI is 21.6 µM in the test on SNB-75 CNS; greater than 44 µM in the test with SF-539 CNS; greater than 100 µM in the test with UO-31 renal; greater than 100 µM in the test with A498 renal; greater than 100 µM in the test on HCC-2998 colon; greater than 100 µM in the test on A549 NSCLC. Further, the TGI in the test with CAKI-1 renal is greater than 100 µM; with BT-549 breast, greater than 100 µM; with T-47D breast, greater than 100 µM; in the test with EKVX NSCLC it was 22.7 µM; in the test on OVCAR-8 ovarian, greater than 100 µM; with COLO 205 colon it was greater than 100 µM.

For `CC(C)[C@H]1NC(=O)[C@H]2N=C(S[C@H]2C)[C@@H]2CCCN2C(=O)[C@H](Cc2ccccc2)NC(=O)[C@@H]2CSC(=N2)[C@@H](Cc2ccccc2)NC(=O)[C@@H]2CSC1=N2`, the TGI in the test with NCI/ADR-RES ovarian, in the test with HCT-116 colon, in the test with HOP-62 NSCLC, in the test with LOX IMVI melanoma, in the test with UACC-257 melanoma and with SK-OV-3 ovarian was greater than 50 µM each time. Also, the TGI was 19.8 µM with RPMI-8226 leukemia; greater than 50 µM in the test with SF-539 CNS; greater than 50 µM in the test with UO-31 renal; 41.7 µM with A498 renal; 28.2 µM in the test on HCC-2998 colon; greater than 50 µM in the test with A549 NSCLC. Besides, the TGI in the test with CAKI-1 renal, in the test with BT-549 breast, in the test with T-47D breast, with EKVX NSCLC, in the test on OVCAR-8 ovarian and in the test on COLO 205 colon was greater than 50 µM each time.

Turning to `Cc1cc(NS(=O)(=O)c2ccc(N=[N+]([O-])c3ccc(S(=O)(=O)Nc4cc(C)on4)cc3)cc2)no1`, the TGI in the test on NCI/ADR-RES ovarian, in the test with HCT-116 colon, with HOP-62 NSCLC, in the test with LOX IMVI melanoma, with HOP-92 NSCLC and in the test on UACC-257 melanoma was greater than 100 µM each time. In addition, the TGI with SK-OV-3 ovarian, in the test on RPMI-8226 leukemia, in the test on SNB-75 CNS, in the test on SF-539 CNS, with UO-31 renal and in the test on A498 renal was greater than 100 µM each time. In addition, the TGI in the test with A549 NSCLC, in the test with CAKI-1 renal, with BT-549 breast, with T-47D breast, in the test with EKVX NSCLC and with OVCAR-8 ovarian was greater than 100 µM throughout. The TGI in the test on COLO 205 colon is greater than 100 µM.

With `COc1ccc(-c2nc(Nc3ccccc3)sc2Cc2sc(Nc3ccccc3)nc2-c2ccc(OC)cc2)cc1`, the TGI in the test with NCI/ADR-RES ovarian, in the test on HCT-116 colon, in the test with HOP-62 NSCLC, in the test with LOX IMVI melanoma, with UACC-257 melanoma and with SK-OV-3 ovarian was greater than 100 µM each time. The TGI with RPMI-8226 leukemia, with SNB-75 CNS, with SF-539 CNS, in the test with UO-31 renal, with A498 renal and with HCC-2998 colon was greater than 100 µM in each case. The TGI in the test on A549 NSCLC, with CAKI-1 renal, in the test with BT-549 breast, in the test with T-47D breast, with EKVX NSCLC and in the test with OVCAR-8 ovarian was greater than 100 µM in each case. In the test on COLO 205 colon, this molecule displayed a TGI greater than 100 µM.

`CC(=O)[C@H]1[C@H](O)C[C@@]2(C)[C@@H]3CCc4cc(O)c(OC5OC(CO)C(O)C(O)C5O)cc4C3(C)C(=O)C[C@]12C` (stereo not given in full): the TGI in the test with NCI/ADR-RES ovarian, with HCT-116 colon, in the test with HOP-62 NSCLC, in the test with LOX IMVI melanoma, with HOP-92 NSCLC and with UACC-257 melanoma was greater than 100 µM each time. Besides, the TGI in the test on SK-OV-3 ovarian, with SNB-75 CNS, in the test on SF-539 CNS, in the test on UO-31 renal, in the test on A498 renal and in the test with HCC-2998 colon was greater than 100 µM throughout. Further, the TGI in the test on A549 NSCLC, in the test with CAKI-1 renal, in the test with BT-549 breast, in the test with T-47D breast, with EKVX NSCLC and in the test with OVCAR-8 ovarian was greater than 100 µM throughout. This molecule also yielded a TGI in the test with COLO 205 colon greater than 100 µM.

For `Nc1ccccc1C(=O)N=Nc1c(O)[nH]c2ccccc12`, the TGI in the test on NCI/ADR-RES ovarian is greater than 100 µM; in the test with HCT-116 colon it was greater than 100 µM; with HOP-62 NSCLC, greater than 100 µM; with UACC-257 melanoma, greater than 100 µM; with SK-OV-3 ovarian, greater than 100 µM; in the test with SNB-75 CNS, 81 µM. Further, the TGI in the test with SF-539 CNS, with UO-31 renal, in the test on A498 renal, in the test with HCC-2998 colon, in the test with A549 NSCLC and in the test with CAKI-1 renal was greater than 100 µM in each case. Also, the TGI in the test on BT-549 breast, with T-47D breast, with EKVX NSCLC, in the test on OVCAR-8 ovarian and with COLO 205 colon was greater than 100 µM throughout.

With `CCCCCCCCCCCCCCCCNC(=O)/C(=C\c1ccc(Cl)c(Cl)c1)NC(=O)c1ccccc1`, the TGI with NCI/ADR-RES ovarian is greater than 100 µM; in the test with HCT-116 colon, greater than 100 µM; with HOP-62 NSCLC it was 51.6 µM; in the test on LOX IMVI melanoma, 54.2 µM; in the test on HOP-92 NSCLC it was 34.7 µM; in the test on UACC-257 melanoma, greater than 100 µM. For the same molecule, the TGI was greater than 100 µM with SK-OV-3 ovarian; 58.5 µM in the test with RPMI-8226 leukemia; 33.1 µM with SNB-75 CNS; 30.8 µM with SF-539 CNS; greater than 100 µM in the test with UO-31 renal; 35.5 µM with A498 renal. In addition, the TGI in the test on A549 NSCLC, in the test on CAKI-1 renal, in the test on BT-549 breast, with T-47D breast, in the test on EKVX NSCLC and in the test with OVCAR-8 ovarian was greater than 100 µM each time. The TGI in the test with COLO 205 colon is greater than 100 µM.

In the case of `Cc1cc(O)c(/C=N/C(=S)Nc2ccc(S(N)(=O)=O)cc2)c(=O)o1`, the TGI with NCI/ADR-RES ovarian, in the test with HCT-116 colon, with HOP-62 NSCLC, with LOX IMVI melanoma, in the test on HOP-92 NSCLC and in the test on UACC-257 melanoma was greater than 100 µM each time. Moreover, the TGI in the test on SK-OV-3 ovarian, with SNB-75 CNS, with SF-539 CNS, with UO-31 renal, in the test with A498 renal and with HCC-2998 colon was greater than 100 µM in each case. For the same molecule, the TGI with A549 NSCLC, in the test with CAKI-1 renal, in the test on BT-549 breast, with T-47D breast, in the test on EKVX NSCLC and in the test on OVCAR-8 ovarian was greater than 100 µM throughout. This molecule also gave a TGI with COLO 205 colon greater than 100 µM.

As for `CC(=O)/C(=C\I)c1ccccc1`, the TGI came to 25 µM in the test on NCI/ADR-RES ovarian; 4.65 µM in the test with HCT-116 colon; 46.9 µM in the test with HOP-62 NSCLC; 3.59 µM in the test with LOX IMVI melanoma; 4.74 µM in the test on HOP-92 NSCLC; 15.5 µM in the test with UACC-257 melanoma. Besides, the TGI is 26.5 µM in the test on SK-OV-3 ovarian; 5.26 µM in the test with RPMI-8226 leukemia; 20.3 µM with SNB-75 CNS; 34.2 µM in the test with SF-539 CNS; 10.3 µM in the test with UO-31 renal; 32.3 µM with A498 renal. Also, the TGI in the test with A549 NSCLC turned out to be 30 µM; in the test on BT-549 breast it was 3.39 µM; in the test with T-47D breast, 3.83 µM; in the test on EKVX NSCLC, 33.3 µM; in the test on OVCAR-8 ovarian, 3.45 µM; with COLO 205 colon it was 3.14 µM.

`COc1cc(C2c3cc4c(cc3C(=O)C3CCC(=O)N32)OCO4)cc(OC)c1O` (stereo not given): the TGI in the test with NCI/ADR-RES ovarian, with HCT-116 colon, in the test on HOP-62 NSCLC, in the test on HOP-92 NSCLC, in the test on UACC-257 melanoma and in the test on SK-OV-3 ovarian was greater than 50 µM in each case. For the same molecule, the TGI in the test on RPMI-8226 leukemia, in the test with SNB-75 CNS, with SF-539 CNS, in the test on UO-31 renal, with A498 renal and in the test on A549 NSCLC was greater than 50 µM in each case. Also, the TGI in the test with BT-549 breast, in the test on T-47D breast, with EKVX NSCLC, in the test with OVCAR-8 ovarian and in the test with COLO 205 colon was greater than 50 µM each time.

`COC(=O)/C=C/[C@@H]1[C@H](C)N1S(=O)(=O)c1ccc(C)cc1` (stereo not given in full): the TGI with NCI/ADR-RES ovarian, in the test on HCT-116 colon, in the test on HOP-62 NSCLC, in the test on LOX IMVI melanoma, in the test on UACC-257 melanoma and with SK-OV-3 ovarian was greater than 100 µM throughout. The TGI in the test on RPMI-8226 leukemia, in the test with SF-539 CNS, in the test with A498 renal, in the test on HCC-2998 colon, with A549 NSCLC and with CAKI-1 renal was greater than 100 µM each time. Besides, the TGI in the test with BT-549 breast, in the test on T-47D breast, with EKVX NSCLC, in the test with OVCAR-8 ovarian and in the test with COLO 205 colon was greater than 100 µM throughout.
